{
  "source": "paper PMC2699040",
  "about": "(European Journal of Immunology, 2007)",
  "origin": "cited, not measured here",
  "key": {"[1]": {"system": "CTL line specific for the influenza epitope KTGGAIYKR", "details": "alanine-substituted at all but a single non-MHC anchor position; ref [14]; cited from earlier work"}, "[2]": {"system": "SC21 peripheral blood lymphocytes", "details": "adapted IFN-γ ELISPOT, directly ex vivo; ref [18]; cited from earlier work"}},
  "data": [
    {"sequence": "ATAAAIAAR", "values": [
      {"measurement": "Recognition by CTL line", "setting": "[1]", "value": "recognise efficiently"}
    ]},
    {"sequence": "FHCQVCFTTKALGISYGRKK [Tat4 peptide]", "values": [
      {"measurement": "HLA-A68-restricted response / antigenicity", "setting": "[2]", "value": "An HLA-A68-restricted response"}
    ]}
  ]
}
